The source of these data is patent US12685297B2, “Genetically modified mouse, methods for producing the same, and uses thereof” (MacKay Memorial Hospital, priority 2023, dated 2026).

For the experiment, the system named is GYP.Mur knock-in mice and control mice. Kind of experiment: Evaluation of anti-hypertensive medications: blood pressure after oral gavage. The experiment is classed as in vivo, mouse (C57BL/6J). The procedure:
Mouse BP was measured using an 8-channel non-invasive blood pressure system, a conventional instrument for murine BP measurements with about 99% correlation to the invasive telemetry approach. The BP system is a traditional, tail-cuff method, with a volume-pressure recording (VPR) sensor-cuff (similar to a stethoscope) and an occlusion cuff (similar to the arm cuff for conventional human BP measurement). The instrument settings in this study were 5 acclimation cycles, 15 cycles per set, 250 mmHg as the maximal occlusion pressure, and 20 seconds for deflation. Before the measurement, the experimenter gently placed a mouse in a holder or at the entry point of the holder, from which the mouse could voluntarily walked into the holder. An occlusion cuff and a VPR cuff were then fitted onto the mouse tail. The holder carrying a cuffed mouse inside was moved to the warming platform and covered with a thermal blanket, which ensured the temperature of the tail to be within 32-35° C. during volume-pressure-based BP measurements. Invalid measurements were mostly due to unmet tail temperature or restless states of the animal, which were identified and excluded. After BP measurements, the mice were immediately put back to their own cage. The body weight (BW) of each mouse was measured for preparation of individual anti-hypertensive doses (in mg drug per Kg BW). The mice were individually administered by oral gavage of an anti-hypertensive drug mixed in 100 μL autoclaved ddH2O. The dose and maximal efficacy of an anti-hypertensive drug was determined based on the degrees of BP drop within an hour of anti-hypertensive administration. One dose of an anti-hypertensive drug was tested on a single day. On the morning of the test day, the blood pressure of GYP.Mur knock-in mice and age-matched control mice (wild-type mice) was first measured. Only the mice with SBP>120 mmHg on that day were tested with an anti-hypertensive medication. The BP and heart rates (HR) of the mice were measured at the 1st, 3rd, 5th, and the 24th hour post-medication. […]

`CCOC(=O)C1=C(COCCN)NC(C)=C(C(=O)OC)C1c1ccccc1Cl` (stereo not drawn) [amlodipine]: the “duration of sustained BP-lowering effects” value (following oral gavage, control and GYP.Mur knock-in mice) turned out to be 5 h.

With `C[C@H](CS)C(=O)N1CCC[C@H]1C(=O)O` [captopril], the “BP-lowering effects at the 3rd hour post-oral gavage” value (3rd hour post-oral gavage, compared with one hour, data not shown) is recorded as “slightly diminished”. Where the note is “oral gavage, control and GYP.Mur knock-in mice, data not shown”, the “time after medication at which BP was lowered most substantially” value was “one”.
